{
  "source": "patent US10632324B2",
  "about": "“Method for the treatment of skin tissues” (9127-4910 Quebec Inc., priority 2017, dated 2020)",
  "key": {"[1]": {"tested_on": "facial papulo-pustular inflammatory acne lesions", "assay": "Split-face radiant IR skin preparation prior to PDT, inflammatory acne of the face (Example 6)", "assay_type": "in vivo, human", "description": "A person was treated for facial papulo-pustular inflammatory acne lesions. After performing an acetone scrub on the treatment area, a radiant IR skin preparation was done on the right side of their face (970 nm, 80 mW/cm2, for 30 min). Then 5-aminolevulinic acid (Levulan™ Kerastick™) was applied to the skin and left for 90 min incubation time. […] Radiant IR skin preparation allows for a reduction in the number of PDT treatments necessary for significant clinical improvements."}, "[2]": {"tested_on": "conversion of 5-ALA to protoporphyrin IX (PpIX)", "assay": "Fluoderm fluorescence after 940 nm photopreparation and 5-ALA, one subject (Example 11)", "assay_type": "in vivo, human", "description": "In order to measure the effect of photopreparation on the skin we used an LED device (Lumiphase 940 nm, CW and Pulsed, irradiance: 70 mW/cm2, OpusMed, Montreal, Canada) prior to the application of a photosensitizer (5-ALA: Levulan, Kerastick, DUSA Pharmaceuticals, USA). We tested both CW and sequential pulsing modes 24 h and 30/15 minutes (total fluence 63 J/cm^2 before the application of 5-ALA for 3 hours). Following an incubation time of 3 hours, we measured the fluorescence induced by the conversion of 5-ALA to protoporphyrin IX (PpIX) with a dedicated device (Fluoderm, Dia-Medico ApS, Danemark). The pulsed radiation, referred to as D50 hereinbelow, consisted in pulse trains of 4 pulses with pulses lasting 500 μs separated with an inter-pulse interval within each train of 150 μs. The pulse trains were separated from each other by 1550 μs. Higher numbers mean higher conversion to PpIX, and thus indicate that the PDT treatment will be more efficient. All parameters were tested on adjacent portion of the subject's skin. The experiment was performed on the back of a person with phototype I."}},
  "note": "Values joined by “and” are separate entries in the source; they are usually repeats but may differ in a detail not shown here. Equal values may be shown once.",
  "data": [
    {"smiles": "NCC(=O)CCC(=O)O", "note": "[5-ALA, 5-aminolevulinic acid]", "values": [
      {"measurement": "lesion number reduction", "setting": "[1]; IR treated side (970 nm, 80 mW/cm2, 30 min), 90 min incubation, one treatment", "result": "60-70%"},
      {"measurement": "clinical outcome of side without IR", "setting": "[1]; untreated (no IR) side, PDT alone", "result": "needed an additional PDT session to achieve similar results"},
      {"measurement": "Fold increase of fluorescence compared to 5-ALA alone", "setting": "[2]; PP 15 min pre-5-ALA: CW - 15 min", "result": "1.09 fold and 1.03 fold"},
      {"measurement": "Fluoderm Measurements, Post 3 hour incubation (5-ALA)", "setting": "[2]; PP 15 min pre-5-ALA: CW - 15 min, 940 nm, 70 mW/cm2", "result": 51},
      {"measurement": "Fold increase of fluorescence compared to 5-ALA alone", "setting": "[2]; PP 30 min pre-5-ALA: D50 - 30 min", "result": 1.19, "unit": "fold"},
      {"measurement": "Fluoderm Measurements, Post 3 hour incubation (5-ALA)", "setting": "[2]; PP 30 min pre-5-ALA: D50 - 30 min, 940 nm, 70 mW/cm2", "result": 59},
      {"measurement": "Fold increase of fluorescence compared to 5-ALA alone", "setting": "[2]; PP 24 h pre-5-ALA: CW - 15 min", "result": 1.13, "unit": "fold"},
      {"measurement": "Fluoderm Measurements, Post 3 hour incubation (5-ALA)", "setting": "[2]; PP 24 h pre-5-ALA: CW - 15 min, 940 nm, 70 mW/cm2", "result": 56},
      {"measurement": "Fold increase of fluorescence compared to 5-ALA alone", "setting": "[2]; PP 24 h pre-5-ALA: D50 - 30 min", "result": 1.45, "unit": "fold"},
      {"measurement": "Fluoderm Measurements, Post 3 hour incubation (5-ALA)", "setting": "[2]; PP 24 h pre-5-ALA: D50 - 30 min, 940 nm, 70 mW/cm2", "result": 72},
      {"measurement": "Fold increase of fluorescence compared to 5-ALA alone", "setting": "[2]; Positive control: 5-ALA alone", "result": 1, "unit": "fold"},
      {"measurement": "Fluoderm Measurements, Post 3 hour incubation (5-ALA)", "setting": "[2]; Positive control: 5-ALA alone, no photopreparation", "result": 49.5}
    ]}
  ]
}
